These are literature values, as cited in patent US20090093463A1, “NOVEL COMPOUNDS OF SUBSTITUTED AND UNSUBTITUTED ADAMANTYL AMIDES” (AGOURON PHARMACEUTICALS INC., priority 2004, published 2009).

Data set [1] deals with T1, 11-β-hsd-1 (Homo sapiens, UniProt P28845).
T1 construct: host or cells: normal subjects (in vivo)
To be noted: ingestion, normal subjects.

For data set [2], the target named is T1, 11-β-hsd-1. To be noted: healthy human volunteers.

T1 sequence (P28845 whole entry): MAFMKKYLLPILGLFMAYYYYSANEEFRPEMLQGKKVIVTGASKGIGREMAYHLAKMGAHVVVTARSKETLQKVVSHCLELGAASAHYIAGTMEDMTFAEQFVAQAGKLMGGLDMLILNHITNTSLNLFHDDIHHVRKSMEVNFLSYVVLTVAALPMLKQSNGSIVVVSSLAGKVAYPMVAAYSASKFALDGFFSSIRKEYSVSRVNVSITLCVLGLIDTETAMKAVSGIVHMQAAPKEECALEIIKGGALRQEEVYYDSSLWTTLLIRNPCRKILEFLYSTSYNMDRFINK

`CC1(C)[C@@H](OC(=O)CCC(=O)O)CC[C@]2(C)[C@H]3C(=O)C=C4[C@@H]5C[C@@](C)(C(=O)O)CC[C@]5(C)CC[C@@]4(C)[C@]3(C)CC[C@@H]12` [carbenoxolone]: the “reduction of intraocular pressure” value in data set [1] is listed as 20%. In addition, the hepatic insulin sensitivity result in data set [2] was “improved”.
